Experimental data reported in patent US4994485A, “Thio compounds having fungicidal activity” (Duphar International Research B.V., priority 1986, dated 1991).

Legend:
Type in all cases: cell-based
[1] = tested on: Fusarium culmorum; assay: In vitro test on activity against Fusarium culmorum; conditions: read-out: growth inhibition of the fungus
[2] = tested on: Pythium splendens; assay: In vitro test on activity against Pythium splendens; conditions: Globisporangium splendens, read-out: growth inhibition of the fungus
[3] = tested on: Leptosphaeria nodorum; assay: In vitro test on activity against Leptosphaeria nodorum; conditions: Parastagonospora nodorum, read-out: growth inhibition of the fungus
Procedure: The compound to be tested is processed in a culture medium consisting of 1% by weight of glucose, 0.2% by weight of a yeast extract (marmite), 0.5% by weight of a protein (pepton), 2.5% by weight of agar-agar, and 95.8% by weight of water, in petri dishes in concentrations of 3 and 10 ppm. The petri dishes are inoculated with the plant-pathogenic fungus Pyrenophora graminea and then kept at a temperature of 20° C. After 48 hours the growth-inhibiting activity of the compounds is determined visually. For comparison, the known substance (b) (see EXAMPLE XV) is also tested.
Compounds according to the invention are tested on i Leptosphaeria nodorum in the same manner as described in EXAMPLE XIX.

## C[S+]([O-])c1sc2cccc(Cl)c2c1C#N (stereo not drawn) [(11), 2-methylsulphinyl-3-cyano-4-chloro-benzothiophene]
[1]
  inhibition at 30 ppm: ≥ 75%

## CCS(=O)(=O)c1sc(C#N)cc1C#N [(16), 2-ethylsulphonyl-3,5-dicyanothiophene]
[2]
  inhibition at 10 ppm: ≥ 95%

## CC[S+]([O-])c1sc(C(C)=O)c(NC)c1C#N (stereo not drawn) [(17), 2-ethylsulphinyl-3-cyano-4-N-methylamino-5-acetylthiophene]
[3]
  inhibition at 30 ppm: ≥ 85%
[2]
  inhibition at 10 ppm: ≥ 95%

## CCS(=O)(=O)c1sc(C(C)=O)c(Cl)c1C#N [(18), 2-ethylsulphonyl-3-cyano-4-chloro-5-acetylthiophene]
[2]
  inhibition at 10 ppm: ≥ 95%

## CC[S+]([O-])c1sc2cc(Cl)ccc2c1C#N (stereo not drawn) [(20), 2-ethylsulphinyl-3-cyano 6-chloro-benzothiophene]
[3]
  inhibition at 30 ppm: ≥ 85%

## CCS(=O)(=O)c1sc(C(C)=O)cc1C#N [(21), 2-ethylsulphonyl-3-cyano-5-acetylthiophene]
[2]
  inhibition at 10 ppm: ≥ 95%

## CCS(=O)(=O)c1sc(C#N)c(Cl)c1C#N [(22), 2-ethylsulphonyl-3,5 dicyano-4-chlorothiophene]
[1]
  inhibition at 30 ppm: ≥ 75%
[2]
  inhibition at 10 ppm: ≥ 95%

## CC[S+]([O-])c1sc(C(C)=O)c(OC)c1C#N (stereo not drawn) [(23), 2-ethylsulphinyl-3-cyano-4-methoxy-5-acetylthiophene]
[1]
  inhibition at 30 ppm: ≥ 75%
[3]
  inhibition at 30 ppm: ≥ 85%

## COc1c(C(C)=O)sc([S+](C)[O-])c1C#N (stereo not drawn) [(25), 2-methylsulphinyl-3-cyano-4-methoxy-5-acetylthiophene]
[2]
  inhibition at 10 ppm: ≥ 95%

## C[S+]([O-])c1sc(C=O)c(-c2ccc(Cl)cc2)c1C#N (stereo not drawn) [(26), 2-methylsulphinyl-3-cyano-4-(4-chlorophenyl)-5-formylthiophene]
[2]
  inhibition at 10 ppm: ≥ 95%

## C[S+]([O-])c1sc(C=O)cc1C#N (stereo not drawn) [(28), 2-methylsulphinyl-3-cyano-5-formylthiophene]
[2]
  inhibition at 10 ppm: ≥ 95%

## CCOC(=O)c1sc([S+](C)[O-])c(C#N)c1N (stereo not drawn) [(29), 2-methylsulphinyl-3-cyano-4-amino-5-ethoxycarbonylthiophene]
[1]
  inhibition at 30 ppm: ≥ 75%

## C[S+]([O-])c1sc(C(=O)c2ccccc2)cc1C#N (stereo not drawn) [(30)]
[2]
  inhibition at 10 ppm: ≥ 95%

## CCOC(=O)c1sc([S+]([O-])CC)c(C#N)c1Cl (stereo not drawn) [(37), 2-ethylsulphinyl 3-cyano-4-chloro-5-ethoxycarbonylthiophene]
[1]
  inhibition at 30 ppm: ≥ 75%
[3]
  inhibition at 30 ppm: ≥ 85%

## CCCCCC[S+]([O-])c1sc(C#N)c(N)c1C#N (stereo not drawn) [(38), 2-n-hexylsulphinyl-3,5-dicyano-4-aminothiophene]
[1]
  inhibition at 30 ppm: ≥ 75%

## CCCC[S+]([O-])c1sc(C(C)=O)cc1C#N (stereo not drawn) [(44), 2-n-butylsulphinyl-3-cyano-5-acetylthiophene]
[1]
  inhibition at 30 ppm: ≥ 75%
[3]
  inhibition at 30 ppm: ≥ 85%

## CC[S+]([O-])c1sc(C#N)c(N)c1C#N (stereo not drawn) [(46), 2-ethylsulphinyl-3,5-dicyano-4-aminothiophene]
[2]
  inhibition at 10 ppm: ≥ 95%

## C[S+]([O-])c1sc(C=O)c(N)c1C#N (stereo not drawn) [(48), 2-methylsulphinyl-3-cyano-4-amino-5-formylthiophene]
[2]
  inhibition at 10 ppm: ≥ 95%

## CC[S+]([O-])c1sc(C=O)c(N)c1C#N (stereo not drawn) [(49), 2-ethylsulphinyl-3-cyano-4-amino-5-formylthiophene]
[2]
  inhibition at 10 ppm: ≥ 95%

## CC[S+]([O-])c1sc(C=O)c(Cl)c1C#N (stereo not drawn) [(50), 2-ethylsulphinyl-3-cyano-4-chloro-5-formylthiophene]
[2]
  inhibition at 10 ppm: ≥ 95%

## CC[S+]([O-])c1sc(C#N)c(N(C)C(C)=O)c1C#N (stereo not drawn) [(54), 2-ethylsulphinyl-3,5-dicyano-4-(N-acetyl-N-methylamino)thiophene]
[2]
  inhibition at 10 ppm: ≥ 95%

## CCC[S+]([O-])c1sc(C#N)c(OC)c1C#N (stereo not drawn) [(55), 2-n-propylsulphinyl-3,5-dicyano-4-methoxythiophene]
[1]
  inhibition at 30 ppm: ≥ 75%
[2]
  inhibition at 10 ppm: ≥ 95%

## CC[S+]([O-])c1sc(C=O)c(C)c1C#N (stereo not drawn) [(56), 2-ethylsulphinyl-3-cyano-4-methyl-5-formylthiophene]
[2]
  inhibition at 10 ppm: ≥ 95%

## CCC[S+]([O-])c1sc(C(C)=O)c(N)c1C#N (stereo not drawn) [(57), 2-n-propylsulphinyl-3-cyano-4-amino-5-acetylthiophene]
[1]
  inhibition at 30 ppm: ≥ 75%
[2]
  inhibition at 10 ppm: ≥ 95%

## CC(=O)COc1c(C(C)=O)sc([S+](C)[O-])c1C#N (stereo not drawn) [(59), 2-methylsulphinyl-3-cyano-4-acetylmethoxy-5-acetylthiophene]
[2]
  inhibition at 10 ppm: ≥ 95%

## C[S+]([O-])c1sc(S(C)(=O)=O)cc1C#N (stereo not drawn) [(60), 2-methylsulphinyl-3-cyano-5-methylsulphonylthiophene]
[2]
  inhibition at 10 ppm: ≥ 95%

## CCC[S+]([O-])c1sc(C(C)=O)c(Cl)c1C#N (stereo not drawn) [(61), 2-n-propylsulphinyl-3-cyano-4-cloro-5-acetylthiophene]
[1]
  inhibition at 30 ppm: ≥ 75%
[2]
  inhibition at 10 ppm: ≥ 95%

## CCC[S+]([O-])c1sc(C(C)=O)c(C)c1C#N (stereo not drawn) [(62), 2-n-propylsulphinyl-3-cyano-4-methyl-5-acetylthiophene]
[1]
  inhibition at 30 ppm: ≥ 75%

## CC[S+]([O-])c1sc(C#N)c(C)c1C#N (stereo not drawn) [(63), 2-ethylsulphinyl-3,5-dicyano-4-methylthiophene]
[3]
  inhibition at 30 ppm: ≥ 85%

## CC[S+]([O-])c1sc(C(=O)c2ccccc2)cc1C#N (stereo not drawn) [(64), 2-ethylsulphinyl-3-cyano-5-benzoylthiophene]
[1]
  inhibition at 30 ppm: ≥ 75%
[3]
  inhibition at 30 ppm: ≥ 85%

## CC[S+]([O-])c1sc(C#N)c(-n2cncn2)c1C#N (stereo not drawn) [(68), 2-ethylsulphinyl-3,5-dicyano-4-(1,2,4-triazol-1-yl)thiophene]
[2]
  inhibition at 10 ppm: ≥ 95%

## CC[S+]([O-])c1sc(C#N)c(-n2ccnc2)c1C#N (stereo not drawn) [(69), 2-ethylsulphinyl-3,5-dicyano-4-(imidazol-1-yl)thiophene]
[2]
  inhibition at 10 ppm: ≥ 95%

## C[S+]([O-])c1sc(C=O)cc1C=O (stereo not drawn) [(70), 2-methylsulphinyl-3,5-diformylthiophene]
[2]
  inhibition at 10 ppm: ≥ 95%

## CC[S+]([O-])c1sc(C(=O)c2ccc(Cl)cc2)c(OC)c1C#N (stereo not drawn) [(76), 2-ethylsulphinyl-3-cyano-4-methoxy-5-(4-chlorobenzoyl)thiophene]
[3]
  inhibition at 30 ppm: ≥ 85%

## CC[S+]([O-])c1sc(S(C)(=O)=O)c(Cl)c1C#N (stereo not drawn) [(77), 2-ethylsulphinyl-3-cyano-4-chloro-5-methylsulphonyl-thiophene]
[2]
  inhibition at 10 ppm: ≥ 95%

## CCCCCCCC[S+]([O-])c1sc(C#N)cc1C#N (stereo not drawn) [(81), 2-n-octylsulphinyl-3,5-dicyanothiophene]
[1]
  inhibition at 30 ppm: ≥ 75%

## CC[S+]([O-])c1sc(C=O)c(Cl)c1C=O (stereo not drawn) [(83), 2-ethylsulphinyl-3,5-diformyl-4-chlorothiophene]
[2]
  inhibition at 10 ppm: ≥ 95%

## CCS(=O)(=O)c1sc(S(C)(=O)=O)c(Cl)c1C#N [(84), 2-ethylsulphonyl-3-cyano-4-chloro-5-methylsulphonylthiophene]
[2]
  inhibition at 10 ppm: ≥ 95%

## CCCC[S+]([O-])c1sc(C(=O)c2ccccc2)cc1C#N (stereo not drawn) [(90), 2-n-butylsulphinyl 3-cyano-5-benzoylthiophene]
[1]
  inhibition at 30 ppm: ≥ 75%

## CC[S+]([O-])c1sc(C(=O)c2ccccc2)c(C)c1C#N (stereo not drawn) [(91), 2-ethylsulphinyl-3-cyano-4-methyl-5-benzoylthiophene]
[1]
  inhibition at 30 ppm: ≥ 75%

## CS/C(=C(\C#N)c1ccccc1)[S+](C)[O-] (stereo not drawn) [(93), α-cyano-β-methylsulphinyl)-β-methylthio-styrene, E-isomer]
[1]
  inhibition at 30 ppm: ≥ 75%
[2]
  inhibition at 10 ppm: ≥ 95%
